The values below are quoted from earlier work in patent EP2361081B1, “MULTI PORTION INTRA-ORAL DOSAGE FORM AND USE THEREOF” (McNeil AB, priority 2008, dated 2010).

The conditions of data set [1]: pKa value lying in interval 8 - 9,6; taken from Handbook of Chemistry and Physics, 85th edition.
For data set [2] the following is noted: stated in the context of absorption from the oral cavity.
[3] abbreviates: in water; footnote b) = low or uncertain value, taken from Handbook of Chemistry and Physics, 85th edition.

Like-named read-outs stand apart in the source and are kept apart here. Peptide text beside a SMILES is read from it.

For the compound `NC(=O)C[C@H](N)C(=O)O` [Aspargine], in data set [1], the “pKa value (in interval 8 - 9,6)” value is 8,73. Turning to `N[C@@H](CS(=O)(=O)O)C(=O)O` [Cysteic acid], under setting [3], the “Solubility in water, g/kg” value was “Very soluble”. In addition, in data set [1], the “pKa value (in interval 8 - 9,6)” value is recorded as 8,70.

As to `N[C@@H](CCC(=O)O)C(=O)O` [Glutamic acid], the “pKa value (in interval 8 - 9,6)” value in data set [1] was 9,58. `NC(=O)CC[C@H](N)C(=O)O` [Glutamine]: under setting [3], the “Solubility in water” value is 42 g/kg. Besides, the “pKa value (in interval 8 - 9,6)” value in data set [1] is on record as 9,00.

Consider `NCC(=O)O` [Glycine], for which the “pKa value (in interval 8 - 9,6)” value in data set [1] was 9,58. With `N[C@@H](Cc1c[nH]cn1)C(=O)O` [Histidine], the “Solubility in water, g/kg” value under setting [3] was 43,5 g/kg. Also, the “pKa value (in interval 8 - 9,6)” value in data set [1] is 9,09. With `CC[C@H](C)[C@H](N)C(=O)O` [Isoleucine], the “Solubility in water, g/kg” value under setting [3] is 34,2 g/kg. The “pKa value (in interval 8 - 9,6)” value in data set [1] is recorded as 9,60. For `CC(C)C[C@H](N)C(=O)O` [Leucine], under setting [3], the “Solubility in water, g/kg” value is given as 22,0 g/kg. Consider `NCCCC[C@H](N)C(=O)O` [Lysine], for which the “Solubility in water, g/kg” value was “Very soluble ^a)b)”. The “pKa value (in interval 8 - 9,6)” value in data set [1] is listed as 9,16.

In the case of `CSCC[C@H](N)C(=O)O` [Methionine], the “Solubility in water” value under setting [3] is on record as 56 g/kg. For the same compound, in data set [1], the “pKa value (in interval 8 - 9,6)” value was 9,08. Regarding `NCC(=O)NCC(=O)O` [N-Glycylglycine] (H-Gly-Gly-OH), the “pKa value (in interval 8 - 9,6)” value in data set [1] is reported as 8,10. For the compound `N[C@@H](Cc1ccccc1)C(=O)O` [Phenylalanine], the “Solubility in water, g/kg” value under setting [3] is reported as 27,9 g/kg. For the same compound, the “pKa value (in interval 8 - 9,6)” value in data set [1] is listed as 9,09. `N[C@@H](CO)C(=O)O` [Serine]: the “pKa value (in interval 8 - 9,6)” value in data set [1] is reported as 9,05.

For `C[C@@H](O)[C@H](N)C(=O)O` [Threonine], in data set [1], the “pKa value (in interval 8 - 9,6)” value was 8,96. `CC(C)[C@H](N)C(=O)O` [Valine]: under setting [3], the “Solubility in water, g/kg” value is recorded as 88,5 g/kg. In addition, the “pKa value (in interval 8 - 9,6)” value in data set [1] is 9,52. Take `CN1CCCC1c1cccnc1` (stereo not drawn) [nicotine, 3-(1-methyl-2-pyrrolidinyl)-pyridine]: in data set [2], the pKa of nicotine entry is given as “about 7.8”.
